Assay results: PubChem BioAssay AID1745844 (Carcinogenic Potency Database (CPDB), 2022)

Test system: rodent lifetime carcinogenesis bioassay, tumor incidence TD50
Experiment: carcinogenic potency in animals, long-term in vivo studies, CPDB compilation (AID 1745844)

Molecule `C1COCCO1` has a TD50 (mouse, strain B6C3F1, females, in drinking water, site: any site (literature study), lesion: several types, types named in the paper, dosed 90 weeks, study length 90 weeks) of 847 mg/kg/day, a TD50 (mouse, strain B6C3F1, females, in drinking water, site: liver, lesion: hepatocellular adenoma + hepatocellular carcinoma + neoplastic nodule, dosed 90 weeks, study length 90 weeks) of 594 mg/kg/day and a TD50 (mouse, strain B6C3F1, females, in drinking water, site: liver, lesion: hepatocellular adenoma + hepatocellular carcinoma, dosed 90 weeks, study length 90 weeks) of 594 mg/kg/day. For the same molecule, the TD50 (mouse, strain B6C3F1, females, in drinking water, site: liver, lesion: hepatocellular carcinoma, dosed 90 weeks, study length 90 weeks) was 938 mg/kg/day, the TD50 (mouse, strain B6C3F1, females, in drinking water, site: lung, lesion: alveolar/bronchiolar adenoma + alveolar/bronchiolar carcinoma, dosed 90 weeks, study length 90 weeks) was 71900 mg/kg/day and the TD50 (mouse, strain B6C3F1, males, in drinking water, site: all sites, lesion: hemangioma + hemangiosarcoma, dosed 90 weeks, study length 91 weeks) was 3150 mg/kg/day. It also gave a TD50 (mouse, strain B6C3F1, males, in drinking water, site: all sites, lesion: lymphoma, dosed 90 weeks, study length 91 weeks) of 3930 mg/kg/day, a TD50 (mouse, strain B6C3F1, males, in drinking water, site: any site (literature study), lesion: several types, types named in the paper, dosed 90 weeks, study length 91 weeks) of 1880 mg/kg/day and a TD50 (mouse, strain B6C3F1, males, in drinking water, site: liver, lesion: hepatocellular adenoma + hepatocellular carcinoma + neoplastic nodule, dosed 90 weeks, study length 91 weeks) of 1460 mg/kg/day. For the same molecule, the TD50 (mouse, strain B6C3F1, males, in drinking water, site: liver, lesion: hepatocellular adenoma + hepatocellular carcinoma, dosed 90 weeks, study length 91 weeks) was 1460 mg/kg/day, the TD50 (mouse, strain B6C3F1, males, in drinking water, site: liver, lesion: hepatocellular carcinoma, dosed 90 weeks, study length 91 weeks) was 1420 mg/kg/day and the TD50 (mouse, strain BDF1, females, in drinking water, site: liver, lesion: hepatocellular adenoma, dosed 104 weeks, study length 105 weeks) was 83.1 mg/kg/day. It also gave a TD50 (mouse, strain BDF1, females, in drinking water, site: liver, lesion: hepatocellular carcinoma, dosed 104 weeks, study length 105 weeks) of 404 mg/kg/day, a TD50 (mouse, strain BDF1, females, in drinking water, site: liver, lesion: several types, types named in the paper, dosed 104 weeks, study length 105 weeks) of 65.5 mg/kg/day and a TD50 (mouse, strain BDF1, females, in drinking water, site: nasal cavity, lesion: adenocarcinoma, dosed 104 weeks, study length 105 weeks) of 72100 mg/kg/day. The TD50 (mouse, strain BDF1, males, in drinking water, site: liver, lesion: hepatocellular adenoma, dosed 104 weeks, study length 105 weeks) was 519 mg/kg/day, the TD50 (mouse, strain BDF1, males, in drinking water, site: liver, lesion: hepatocellular carcinoma, dosed 104 weeks, study length 105 weeks) was 1040 mg/kg/day and the TD50 (mouse, strain BDF1, males, in drinking water, site: liver, lesion: several types, types named in the paper, dosed 104 weeks, study length 105 weeks) was 982 mg/kg/day. For the same molecule, the TD50 (mouse, strain BDF1, males, in drinking water, site: nasal cavity, lesion: esthesioneuroepithelioma, dosed 104 weeks, study length 105 weeks) was 60100 mg/kg/day, the TD50 (rat, strain Charles River CD (Sprague-Dawley), males, in drinking water, site: nasal cavity, lesion: squamous-cell carcinoma, dosed 56 weeks, study length 69 weeks) was 2950 mg/kg/day and the TD50 (rat, strain F344/DuCrj, females, in drinking water, site: liver, lesion: hepatocellular adenoma, dosed 104 weeks, study length 105 weeks) was 182 mg/kg/day. It also gave a TD50 (rat, strain F344/DuCrj, females, in drinking water, site: liver, lesion: hepatocellular carcinoma, dosed 104 weeks, study length 105 weeks) of 1120 mg/kg/day, a TD50 (rat, strain F344/DuCrj, females, in drinking water, site: liver, lesion: several types, types named in the paper, dosed 104 weeks, study length 105 weeks) of 167 mg/kg/day and a TD50 (rat, strain F344/DuCrj, females, in drinking water, site: mammary gland, lesion: adenoma, dosed 104 weeks, study length 105 weeks) of 772 mg/kg/day. For the same molecule, the TD50 (rat, strain F344/DuCrj, females, in drinking water, site: nasal cavity, lesion: esthesioneuroepithelioma, dosed 104 weeks, study length 105 weeks) was 12200 mg/kg/day, the TD50 (rat, strain F344/DuCrj, females, in drinking water, site: nasal cavity, lesion: malignant tumor, dosed 104 weeks, study length 105 weeks) was 1430 mg/kg/day and the TD50 (rat, strain F344/DuCrj, females, in drinking water, site: nasal cavity, lesion: squamous-cell carcinoma, dosed 104 weeks, study length 105 weeks) was 1650 mg/kg/day. The TD50 (rat, strain F344/DuCrj, males, in drinking water, site: liver, lesion: hepatocellular adenoma, dosed 104 weeks, study length 105 weeks) was 279 mg/kg/day, the TD50 (rat, strain F344/DuCrj, males, in drinking water, site: liver, lesion: hepatocellular carcinoma, dosed 104 weeks, study length 105 weeks) was 676 mg/kg/day and the TD50 (rat, strain F344/DuCrj, males, in drinking water, site: liver, lesion: several types, types named in the paper, dosed 104 weeks, study length 105 weeks) was 189 mg/kg/day. It also gave a TD50 (rat, strain F344/DuCrj, males, in drinking water, site: mammary gland, lesion: fibroadenoma, dosed 104 weeks, study length 105 weeks) of 3070 mg/kg/day, a TD50 (rat, strain F344/DuCrj, males, in drinking water, site: nasal cavity, lesion: esthesioneuroepithelioma, dosed 104 weeks, study length 105 weeks) of 10600 mg/kg/day and a TD50 (rat, strain F344/DuCrj, males, in drinking water, site: nasal cavity, lesion: malignant tumor, dosed 104 weeks, study length 105 weeks) of 1440 mg/kg/day. For the same molecule, the TD50 (rat, strain F344/DuCrj, males, in drinking water, site: nasal cavity, lesion: rhabdomyosarcoma, dosed 104 weeks, study length 105 weeks) was 10600 mg/kg/day, the TD50 (rat, strain F344/DuCrj, males, in drinking water, site: nasal cavity, lesion: sarcoma, NOS, dosed 104 weeks, study length 105 weeks) was 5270 mg/kg/day and the TD50 (rat, strain F344/DuCrj, males, in drinking water, site: nasal cavity, lesion: squamous-cell carcinoma, dosed 104 weeks, study length 105 weeks) was 3490 mg/kg/day. For the same molecule, the TD50 (rat, strain F344/DuCrj, males, in drinking water, site: peritoneum, lesion: mesothelioma, dosed 104 weeks, study length 105 weeks) was 246 mg/kg/day, the TD50 (rat, strain F344/DuCrj, males, in drinking water, site: subcutaneous tissue, lesion: fibroma, dosed 104 weeks, study length 105 weeks) was 922 mg/kg/day and the TD50 (rat, strain Osborne-Mendel, females, in drinking water, site: any site (literature study), lesion: several types, types named in the paper, dosed 110 weeks, study length 111 weeks) was 40.5 mg/kg/day. It also gave a TD50 (rat, strain Osborne-Mendel, females, in drinking water, site: liver + nasal turbinate, lesion: hepatocellular adenoma + squamous-cell carcinoma, dosed 110 weeks, study length 111 weeks) of 126 mg/kg/day, a TD50 (rat, strain Osborne-Mendel, females, in drinking water, site: liver, lesion: hepatocellular adenoma + hepatocellular carcinoma + neoplastic nodule, dosed 110 weeks, study length 111 weeks) of 124 mg/kg/day and a TD50 (rat, strain Osborne-Mendel, females, in drinking water, site: liver, lesion: hepatocellular adenoma, dosed 110 weeks, study length 111 weeks) of 160 mg/kg/day. The TD50 (rat, strain Osborne-Mendel, females, in drinking water, site: nasal turbinate, lesion: squamous-cell carcinoma, dosed 110 weeks, study length 111 weeks) was 476 mg/kg/day, the TD50 (rat, strain Osborne-Mendel, males, in drinking water, site: any site (literature study), lesion: several types, types named in the paper, dosed 110 weeks, study length 110 weeks) was 114 mg/kg/day and the TD50 (rat, strain Osborne-Mendel, males, in drinking water, site: liver, lesion: hepatocellular adenoma + hepatocellular carcinoma + neoplastic nodule, dosed 110 weeks, study length 110 weeks) was 796 mg/kg/day. For the same molecule, the TD50 (rat, strain Osborne-Mendel, males, in drinking water, site: nasal turbinate, lesion: squamous-cell carcinoma, dosed 110 weeks, study length 110 weeks) was 168 mg/kg/day, the TD50 (rat, strain Sherman, both sexes, in drinking water, site: liver, lesion: hepatocellular carcinoma, dosed 104 weeks, study length 104 weeks) was 2500 mg/kg/day and the TD50 (rat, strain Sherman, both sexes, in drinking water, site: liver, lesion: several types, types named in the paper, dosed 104 weeks, study length 104 weeks) was 2120 mg/kg/day. The TD50 (rat, strain Sherman, both sexes, in drinking water, site: nasal turbinate, lesion: squamous-cell carcinoma, dosed 104 weeks, study length 104 weeks) was 15900 mg/kg/day, the TD50 (rat, strain Wistar, both sexes, in drinking water, site: any site (literature study), lesion: several types, types named in the paper, dosed 63 weeks, study length 64 weeks) was 690 mg/kg/day and the TD50 (rat, strain Wistar, both sexes, in drinking water, site: liver, lesion: hepatoma, dosed 63 weeks, study length 64 weeks) was 515 mg/kg/day.

`CCN(CC)C(C)=O` showed a TD50 (rat, strain Wistar, males, by gavage, site: any site (literature study), lesion: several types, types named in the paper, dosed 73 weeks, study length 73 weeks) of 11.8 mg/kg/day and a TD50 (rat, strain Wistar, males, by gavage, site: kidney, lesion: papillary transitional-cell carcinoma, dosed 73 weeks, study length 73 weeks) of 8.85 mg/kg/day.

For `NNC=O`, the TD50 (mouse, strain Swiss albino, females, in drinking water, site: liver, lesion: several types, types named in the paper, dosed 83 weeks, study length 83 weeks) was 6860 mg/kg/day, the TD50 (mouse, strain Swiss albino, females, in drinking water, site: lung, lesion: several types, types named in the paper, dosed 83 weeks, study length 83 weeks) was 36 mg/kg/day and the TD50 (mouse, strain Swiss albino, males, in drinking water, site: liver, lesion: several types, types named in the paper, dosed 83 weeks, study length 83 weeks) was 1150 mg/kg/day. For the same molecule, the carcinogen call (mouse, strain Swiss albino, males, in drinking water, site: lung, lesion: several types, types named in the paper, dosed 83 weeks, study length 83 weeks) was “positive”.

`Oc1cc2c(cc1O)[C@@H]1c3ccc(O)c(O)c3OC[C@]1(O)C2` gave a TD50 (rat, strain Wistar, both sexes, in feed, site: abdomen, lesion: malignant lymphoma, dosed 78 weeks, study length 78 weeks) of 2410 mg/kg/day, a TD50 (rat, strain Wistar, both sexes, in feed, site: forehead, lesion: malignant lymphoma, dosed 78 weeks, study length 78 weeks) of 2410 mg/kg/day and a TD50 (rat, strain Wistar, both sexes, in feed, site: several sites, sites named in the paper, lesion: malignant lymphoma, dosed 78 weeks, study length 78 weeks) of 1000 mg/kg/day.
